Laboratory results from BigSolDB 2.1.

CC(C)c1nc(N(C)S(C)(=O)=O)nc(-c2ccc(F)cc2)c1/C=C/[C@@H](O)C[C@@H](O)CC(=O)[O-].CC(C)c1nc(N(C)S(C)(=O)=O)nc(-c2ccc(F)cc2)c1/C=C/[C@@H](O)C[C@@H](O)CC(=O)[O-].[Ca+2]
solubility (mole fraction)
Conditions | in ethanol | in ethylene glycol | in isopropanol | in n-butanol | in propylene glycol | in sec-butanol | in water
298.15 K | 0.000337 | 0.000255 | 0.000304 | 0.000429 | 0.0156 | 7.17e-05 | 5.4e-06
303.15 K | 0.000392 | 0.000311 | 0.000366 | 0.000511 | 0.0164 | 8e-05 | 7.02e-06
308.15 K | 0.000469 | 0.000374 | 0.000432 | 0.000614 | 0.0173 | 8.96e-05 | 9e-06
313.15 K | 0.00057 | 0.00044 | 0.000499 | 0.00071 | 0.0181 | 9.92e-05 | 1.13e-05
318.15 K | 0.000681 | 0.000503 | 0.000566 | 0.00082 | 0.0189 | 0.000108 | 1.4e-05
